# Data reported in US20240082128A1, “COMPOSITION FOR USE IN DEGRADATION OF BIOFILM OR PREVENTION OF BIOFILM FORMATION” (Pharmiva AB, priority 2021, published 2024).
# “Also recorded” adds a separate entry of the source.
# Columns and labels:
# Gardnerella vaginalis = conditions: cited from earlier work
# Lactobacillus = conditions: used for treatment of bacterial vaginosis; cited from earlier work
# Candida = conditions: cited from earlier work
# microorganisms = conditions: 5 nM hydrogen peroxide (endogenous stress); cited from earlier work
# biofilm = conditions: for one hour; cited from earlier work
# [1] = system: Candida albicans (ATCC 90028) biofilm; experiment: Biofilm biomass removal, crystal violet staining assay; format: cell-based; conditions: C. albicans
# Method: (§1) Gardnerella vaginalis (ATCC® 14018™) and Candida albicans (ATCC® 90028™) were grown on microtiter plates for 48 h at 37° C.±2° C. before being rinsed with PBS to remove planktonic cells. Thereafter the biofilms of the two microorganisms were exposed to the bulk cream and its components (as well as clinical comparators Metronidazole gel and Monistat 7) for 24 h at 37° C.±2° C. The efficacy of formulations in removing biofilm biomass of G. vaginalis and C. albicans was assessed using a crystal violet staining assay and the efficacy of formulations to decrease biofilm viability of G. vaginalis and C. albicans was assessed by plate count method.
# [2] = system: Gardnerella vaginalis (ATCC 14018) biofilm; experiment: as above; format: cell-based; conditions: G. vaginalis
# Method: as §1
# [3] = system: Candida albicans (ATCC 90028) biofilm; experiment: Biofilm viability, plate count method; format: cell-based; conditions: C. albicans; 48 h biofilm exposed 24 h at 37° C.; mean ± SD
# Method: as §1
# [4] = system: Gardnerella vaginalis (ATCC 14018) biofilm; experiment: Biofilm viability, plate count method; format: cell-based; conditions: G. vaginalis
# Method: as §1
# [5] = Viscosity of polymer gel used as biofilm extracellular matrix proxi (degradation); conditions: 10 g formulation added to gel, viscosity up to 24 hours
# Method: Three different gels were used in the study reported in Example 2 below: 2% natrosol gel, 2% alginate gel and 6% pectin gel. FeSO4 (10 mM) was added to the gels during manufacturing and acts as a catalysator and by mimic oxidation potential in biological fluids.
# The alginate and Natrosol gel were manufactured by adding sodium Alginate/Natrosol to the water solution containing FeSO4, during stirring. The pectin gel was manufactured by heating the water to 80° C. and add pectin as well as FeSO4 during stirring. After manufacture, 6 glass vials (60 mL) were filled with 40 mL of the gel.
# In general, biofilms consist of polymers consisting of polysaccharides, most commonly alginates, extracellular proteins, DNA and small amounts of surfactants and lipid. In this experiment, commercially available polymers were used as proxi (i.e. a measurement of one physical quantity (polymer) as an indicator of the value of another (biofilm)) to model the extracellular matrix of biofilm. […]
# For each test, following method was used: First, viscosity of the pure gel was measured. […] Viscosity was measured immediately before addition of the formulation or composition, immediately after addition of the formulation or composition, 10 min, 1 hour and 24 hours addition of the formulation or composition. […]
# [6] = 48 h biofilm exposed 24 h at 37° C.
# [7] = 48 h biofilm exposed 24 h at 37° C., mean ± SD, n = 3
compound,measurement,setting,value
CCCCCCCCCCCC(=O)OCC(O)CO (stereo not shown) [glycerol monolaurate],Inhibitory effect,Gardnerella vaginalis,inhibitory effect
same,Influence on Lactobacillus count,Lactobacillus,does not influence Lactobacillus count
same,Inhibitory effect,Candida,inhibitory effect
OO [hydrogen peroxide],Effect on biofilm formation,microorganisms,biofilm formation was promoted
same,Concentration needed as sole agent to reduce the amount of biofilm by 85%,biofilm,0.5 % w/w
"OO [0.3% H2O2 aq. sol., hydrogen peroxide]",Removal of biofilm biomass (in words),"[1]; 24 hours incubation, FIG. 3A",efficiently remove biomass
same,Biofilm forming potential,[1]; [6],Medium
same,"Biofilm biomass, optical density at 570 nm",[1]; [7],0.46 ± 0.11
same,Removal of biofilm biomass (in words),"[2]; 24 hours incubation, FIG. 3B, listed as 0.3% H2O2 solution",efficiently diminish the biofilm biomass; also recorded: efficiently remove biomass
same,Biofilm forming potential,[2]; [6],Low/no
same,"Biofilm biomass, optical density at 570 nm",[2]; [7],0.27 ± 0.002
same,Biofilm viability,[3],2.90 ± 0.130 Log10 CFU/mL
same,Biofilm viability,"[4]; 48 h biofilm exposed 24 h at 37° C., mean ± SD",2.47 ± 0.119 Log10 CFU/mL
same,Decrease of biofilm viability (in words),[4]; FIG. 4B,efficiently decrease the viability
lactic acid [0.3% lactic acid solution with 0.7% NaOH],Decrease in viscosity of polymer gel with time (polymer degradation),"[5]; Alginate gel, FIGS. 1B, 2B",viscosity decrease was observed over time
same,Decrease in viscosity of polymer gel with time (polymer degradation),"[5]; Natrosol gel, FIGS. 1A, 2A",viscosity decrease was observed over time
